Assay results reported in patent publication US4327213A, “Alpha-hydrocarbonoxyimino-pyrazineacetonitriles” (ACF Chemiefarma VA, priority 1977, dated 1982).
Where two headings read alike, the source gives them in different places.

Key:
gastric secretion [1] = test: Effects on gastric secretion in the pyloric ligated rat (method of Shay et al.); assay type: in vivo; settings: intraduodenal, 100 mg/kg i.d., sacrificed 3 hours later
Procedure: 2. Effects on Gastric Secretion, in the Pyloric Ligated Rat
The method described by Shay, et al. (Gastroenterol (1945) 26, 906) was used. After overnight starvation the pylorus of a rat was ligated under halothane anaesthesia, the Compound vehicle only administered intraduodenally and the rats allowed to recover. They were sacrificed 3 hours later and the gastric juice removed. After measurement of the volume of secretion, its hydrogen ion concentration, [H^+ ], was determined by titration with 0.05 N NaOH to pH 7. Groups of 4-6 animals were used for each treatment and the inhibitory effect of the Compound was ascertained by comparison of the mean values obtained with those from a simultaneously set up control group of animals which received vehicle only. Students `t` test was applied for significance between groups. The mean values for % inhibition obtained for a number of experiments are shown in the following Table 2, the dosage being 100 mg/kg i.d.

[2] = test system: indomethacin-induced gastric damage; test: Inhibition of indomethacin-induced gastric damage in the rat (anti-ulcer activity, method of Elegbe); assay type: in vivo; settings: po, 5 h, indomethacin 15 mg/kg s.c., compound 100 mg/kg orally, 30 min prior to and 2 h post indomethacin, read-out: Table 1 % Inhibition (mean inhibition of gastric damage)
Procedure: This was assessed by the inhibition of indomethacin-induced gastric damage in the rat according to the method of Elegbe (Israeli J. Med. Sci. (1974), 10, 1451).
Rats were starved overnight, given indomethacin subcutaneously (15 mg/kg) and sacrificed 5 hours later. Stomachs were inflated with 0.9% saline, cut along the greater curvature, pinned out and scored for gastric damage by the following system:
Score 1-3 according to the degree of erythema and slight haemorrhage.
Score 4-6 according to degree of mucosal erosion.
Score 7-9 according to depth of gastric damage.
Groups of 7 rats were used for each treatment level of compound, and a similar group receiving vehicle only was set up on each occasion of testing. Compound or vehicle was administered orally 30 minutes prior to, and at 2 hours post, dosing with indomethacin. Mean values per treatment were obtained using the above scoring system and the Mann Witney test applied for significance between such values. The mean inhibition of gastric damage from a number of experiments is shown in the following Table 1; the dosage being 100 mg/kg orally.

Acute toxicity in mice = settings: mouse, in vivo
Procedure: (§1) 5 (Z-isomer) up to 536 or 824 mg/kg in mice and rats respectively. The acute oral median lethal dose of compound no. 5 is 1268 mg/kg in male mice and 2311 mg/kg in male rats.

Acute toxicity in rats = settings: rat, in vivo
Procedure: as §1

gastric secretion [3] = test: Effects on gastric secretion in the pyloric ligated rat (method of Shay et al.); assay type: in vivo; settings: intraduodenal, 50 mg/kg i.d., sacrificed 3 hours later
[4] = read-out: Table 2 % Inhibition Volume (volume of gastric secretion)
[5] = read-out: Table 2 % Inhibition [H^+ ] (hydrogen ion concentration)

| Structure (SMILES) | inhibition in vivo at 100 mg/kg (gastric secretion [1]; [4]) [%] | inhibition in vivo at 100 mg/kg (gastric secretion [1]; [5]) [%] | inhibition in vivo at 100 mg/kg [2] [%] | other results |
| --- | --- | --- | --- | --- |
| CON=C(C#N)c1cccc(Cl)n1 [6 aa] | 35 | 23 |  |  |
| CO/N=C(\C#N)c1cnc2ccccc2n1 [6 nn] | 28 |  | 79 |  |
| CCCCO/N=C(\C#N)c1cnccn1 [6 d] |  |  | 50 |  |
| CC(C)O/N=C(\C#N)c1cnccn1 [6 c] | 52 |  | 43 |  |
| CON=C(c1ccccn1)C(F)(F)F [Compound 7, 2-Pyridinyl trifluoromethyl ketone, O-methyl oxime] | 74 | 33 |  |  |
| CO/N=C(\C#N)c1ccc2ccc(C)cc2n1 [6 gg] |  |  | 42 |  |
| CO/N=C(\C#N)c1cnccn1 [5 (Z-isomer), α-Methoxyiminopyrazineacetonitrile] | 70 | 73 | 94 | NOAEL (Acute toxicity in mice; mice, single doses, read-out: Single dose up to which no adverse effects were seen): ≥ 536 mg/kg; NOAEL (Acute toxicity in rats; rats, single doses, read-out: Single dose up to which no adverse effects were seen): ≥ 824 mg/kg |
| CO/N=C(/C#N)c1cnccn1 [5 (E-isomer), α-Methoxyiminopyrazineacetonitrile] |  |  | 96 |  |
| CO/N=C(/C#N)c1cnc2ccccn12 [6 qq] | 77 | 29 | 100 |  |
| CO/N=C(\C(N)=O)c1ccccn1 [9 b] | 26 |  | 56 |  |
| CON=C(C#N)c1ccccn1 [6 a] | 62 |  | 62 |  |
| CO/N=C(\C#N)c1ccc2cc(C)ccc2n1 [6 ff] |  |  | 42 |  |
| CCO/N=C(\C#N)c1cnccn1 [6 b] | 66 | 60 | 68 |  |
| CON=C(C#N)c1cccnc1 [6 bb] |  |  | 72 |  |
| CO/N=C(/C(N)=O)c1ccccn1 [9 c] | 40 |  | 65 |  |
| CO/N=C(\C(N)=S)c1ccccn1 [8 (and 10), α-Methoxyimino-2-pyridinethioacetamide] |  |  | 74 | inhibition in vivo at 50 mg/kg (gastric secretion [3]; [4]): 32%; inhibition in vivo at 50 mg/kg (gastric secretion [3]; [5]): 24% |
| CO/N=C(\C#N)c1ccnc2ccccc12 [6 ll] | 85 | 23 | 85 |  |
| N#C/C(=N\OC1CCCCC1)c1cnccn1 [6 e] | 62 | 48 |  |  |
| CON=C(C#N)c1ccncc1 [6 cc] | 80 | 39 | 95 |  |
| CO/N=C(\C#N)c1c[n+](C)ccn1 [Compound 15, α-Methoxyimino-2-pyrazineacetonitrile-4-methiodide] |  |  | 55 |  |
| CO/N=C(\C#N)c1nccc2ccccc12 [6 mm] | 28 |  | 42 |  |
| CON=C(C#N)c1cncnc1 [6 dd] | 35 | 39 | 77 |  |
| CON=Cc1cnccn1 [12 (and 13), Pyrazine carboxaldehyde, O-methyl oxime] | 42 |  | 66 |  |
| CON=C(C#N)c1cnccn1 [Compound 5, α-Methoxyiminopyrazineacetonitrile] |  |  |  | LD50 (Acute toxicity in mice; male mice, oral, read-out: Acute oral median lethal dose): 1270 mg/kg; LD50 (Acute toxicity in rats; male rats, oral, read-out: Acute oral median lethal dose): 2310 mg/kg |
| CO/N=C(\C#N)c1ccc2ccccc2n1 [6 ee] | 28 |  | 84 |  |
| CO/N=C(\C#N)c1c[n+]([O-])ccn1 [14 a] | 50 | 34 | 91 |  |
